Test system: ornithine decarboxylase (ODC)
Assay: ODC assay: inhibition of TPA induction of ornithine decarboxylase (retinoic acid-like activity)
Format: biochemical
Conditions: concentration of the test compound which causes 80% inhibition in the ODC assay; TPA-induced
Description: The retinoic acid-like activity of these compounds is confirmed through the classic measure of retinoic acid activity involving the effects of retinoic acid on ornithine decarboxylase. The original work on the correlation between retinoic acid and decrease in cell proliferation was done by Verma & Boutwell, Cancer Research, 1977, 37,2196-2201. That reference discloses that ornithine decarboxylase (ODC) activity increased precedent to polyamine biosynthesis. It has been established elsewhere that increases in polyamine synthesis can be correlated or associated with cellular proliferation. Thus, if ODC activity could be inhibited, cell hyperproliferation could be modulated. Although all cases for ODC activity increases are unknown, it is known that 12-0-tetradecanoylphorbol-13-acetate (TPA) induces ODC activity. […] Activity of exemplary compounds of the present invention in the abovedescribed ODC assay is disclosed in Table 2 which provides the IC80 concentration for the respective exemplary compound. ("IC80 " is that concentration of the test compound which causes 80% inhibition in the ODC assay. By analogy, "IC60, for example, is that concentration of the test compound which causes 60% inhibition in the ODC assay.)

| SMILES | IC80 conc [nmols] |
| --- | --- |
| CCOC(=O)c1ccc(C#Cc2ccc3c(c2)C2(CCC3(C)C)SCCCS2)cc1 [Compound 58, Ethyl. 4-[[5,6,7,8-tetrahydro-8,8-dimethyl-5-(2-(1,3-dithiane))naphth-3-yl]ethynyl]benzoate] | 26.12 |
| CCOC(=O)c1ccc(C#Cc2ccc3c(c2)C(C)(C)CCC32SCCCS2)cc1 [Compound 59, Ethyl 4-[[5,6,7,8-tetrahydro-8,8-dimethyl-5-(2-(1,3-dithiane))napth-2-yl]ethynyl]benzoate] | 23.00 |
| CCOC(=O)c1ccc(C#Cc2ccc3c(c2)C(C)(C)CCC3=O)nc1 [Compound 5, Ethyl 6-[(5,6,7,8-tetrahydro-8,8-dimethyl-5-oxonaphth-2-yl)ethynyl]nicotinate] | 113 |
| CC1(C)CCC(=O)c2ccc(C#Cc3ccc(C(=O)O)cc3)cc21 [Compound 7, 4-[(5,6,7,8-tetrahydro-8,8-dimethyl-5-oxonaphth-2-yl)ethynyl]benzoic acid] | 1.60 |
| CC1(C)CCC(=O)c2cc(C#Cc3ccc(C(=O)O)cc3)ccc21 [Compound 8, 4-[(5,6,7,8-tetrahydro-8,8-dimethyl-5-oxonaphth-3yl)ethynyl]benzoic acid] | 1.37 |

Other lines, results leading:

| IC80 conc [nmols] | SMILES |
| --- | --- |
| 0.85 | CCOC(=O)c1ccc(C#Cc2ccc3c(c2)C(=O)CCC3(C)C)cc1 [Compound 2, Ethyl 4-[(5,6,7,8-tetrahydro-8,8-dimethyl-5-oxonaphth-3-yl)ethynyl]benzoate] |
| 2.60 | CC1(C)CCC2(SCCCS2)c2cc(C#Cc3ccc(C(=O)O)cc3)ccc21 [Compound 60, 4-[[5,6,7,8-tetrahydro-8,8-dimethyl-5-(2-(1,3-dithiane))naphth-3-yl]ethynyl]benzoic acid] |
| 1.60 | CCOC(=O)c1ccc(C#Cc2ccc3c(c2)C(C)(C)CCC3=O)cc1 [Compound 1, Ethyl 4-[(5,6,7,8-tetrahydro-8,8-dimethyl-5-oxonaphth-2-yl)ethynyl]benzoate] |

Test system: ornithine decarboxylase (ODC)
Assay: not given
Conditions: literature statement; cited from earlier work

| SMILES | inhibition of TPA induction of ODC activity (in words) |
| --- | --- |
| CC1=C(/C=C/C(C)=C/C=C/C(C)=C/C(=O)O)C(C)(C)CCC1 [Retinoic acid] | inhibits this induction of ODC activity |
